Target: T1, human recombinant ENPP1 enzymes (Homo sapiens, UniProt P22413)
T1 construct: purchased R & D systems
T1 sequence (P22413 1-925): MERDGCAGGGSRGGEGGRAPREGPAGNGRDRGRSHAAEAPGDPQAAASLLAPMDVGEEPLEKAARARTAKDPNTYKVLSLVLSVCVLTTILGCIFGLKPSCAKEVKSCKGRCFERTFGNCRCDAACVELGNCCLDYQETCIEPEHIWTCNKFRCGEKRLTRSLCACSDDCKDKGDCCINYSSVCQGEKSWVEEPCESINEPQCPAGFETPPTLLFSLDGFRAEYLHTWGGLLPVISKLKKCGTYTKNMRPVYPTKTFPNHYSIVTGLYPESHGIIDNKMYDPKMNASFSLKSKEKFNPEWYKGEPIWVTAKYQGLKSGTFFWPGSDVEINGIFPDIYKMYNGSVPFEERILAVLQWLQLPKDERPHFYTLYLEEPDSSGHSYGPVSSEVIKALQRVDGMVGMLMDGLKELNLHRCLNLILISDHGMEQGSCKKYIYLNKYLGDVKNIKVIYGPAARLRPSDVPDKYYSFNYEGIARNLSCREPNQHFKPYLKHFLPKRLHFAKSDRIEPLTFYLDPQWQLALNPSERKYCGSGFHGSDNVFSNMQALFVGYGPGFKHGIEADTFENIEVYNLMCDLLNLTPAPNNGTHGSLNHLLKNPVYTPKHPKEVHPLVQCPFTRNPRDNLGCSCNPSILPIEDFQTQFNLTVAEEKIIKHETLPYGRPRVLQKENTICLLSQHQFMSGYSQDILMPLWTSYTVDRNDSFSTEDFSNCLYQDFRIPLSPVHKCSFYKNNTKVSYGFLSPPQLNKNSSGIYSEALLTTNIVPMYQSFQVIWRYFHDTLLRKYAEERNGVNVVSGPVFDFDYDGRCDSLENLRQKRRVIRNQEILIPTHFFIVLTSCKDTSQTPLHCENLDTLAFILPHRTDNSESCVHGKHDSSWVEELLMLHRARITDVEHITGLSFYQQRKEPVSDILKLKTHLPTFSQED
Assay: ENPP1 Enzyme Assay with cGAMP Substrate (AMP-Glo)
Assay type: biochemical
Settings: human recombinant ENPP1, cGAMP 5 μM, 37° C. 90 minutes, AMP-Glo luminescence; read-out: Enzymatic activity (IC50)
Procedure, shortened: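 Recombinant human ENPP1 (3 ng/reaction) preincubated 5 to 10 min at RT with inhibitor (typically 10 μM to 0.5 nM), then 5 μM cGAMP added, 90 min at 37° C in Tris pH 8.5, 250 mM NaCl, CaCl2, ZnCl2, 1% DMSO. AMP product read by AMP-Glo luminescence; IC50 from 3-parameter fit, averaged over repeats.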

IC50 | Compound
< 1000 nM | COc1cc2nnn(-c3ccc4c(c3)CC(NS(N)(=O)=O)C4)c2cc1OC (stereo not shown) [Example 103, N-(5-(5,6-dimethoxy-1H-benzo[d][1,2,3]triazol-1-yl)-dihydro-1H-inden-2-yl)sulfamide]
< 1000 nM | COc1ccc2c(c1)nnn2-c1ccc([C@H](C)NS(N)(=O)=O)cc1 [Example 83, (S)—N-(1-(4-(5-methoxy-1H-benzo[d][1,2,3]triazol-1-yl)phenyl)ethyl)sulfamide]
< 1000 nM | COc1ccc2c(c1)nnn2-c1cc2c(cc1F)CN(S(N)(=O)=O)CC2 [Example 101, 7-fluoro-6-(5-methoxy-1H-benzo[d][1,2,3]triazol-1-yl)-3,4-dihydroisoquinoline-2(1H)-sulfonamide]
> 10000 nM | COc1ccc2c(c1)nnn2C1CCC(CN)CC1 (stereo not shown) [Example 2]

Source: patent publication US20240116882A1, “NOVEL BENZOTRIAZOLE DERIVATIVE HAVING INHIBITORY ACTIVITY AGAINST ECTONUCLEOTIDE PYROPHOSPHATASE-PHOSPHODIESTERASE, AND USE THEREOF” (TXINNO BIOSCIENCE INC., priority 2021, published 2024)
